According to US8741840B2, “BMP-7 for use in treating neointimal hyperplasia” (Washington University, priority 2008, dated 2014):

B1: Noggin: bone morphogenetic protein specific inhibitor (BMP-2 antagonist), from Pepro Tech. (protein, UniProt Q13253 28-232, looked up)
Noggin: QHYLHIRPAPSDNLPLVDLIEHPDPIFDPKEKDLNETLLRSLLGGHYDPGFMATSPPEDRPGGGGGAAGGAEDLAELDQLLRQRPSGAMPSEIKGLEFSEGLAQGKKQRLSKKLRRKLQMWLWSQTFCPVLYAWNDLGSRFWPRYVKVGSCFSKRSCSVPEGMVCKPSKSVHLTVLRWRCQRRGGQRCGWIPIQYPIISECKCSC

Key:
[1] = system: LDLR−/− high fat fed mice; experiment: Histology of proximal aorta (alizarin red): calcified atherosclerotic plaques; assay type: in vivo, mouse; conditions: for size of the atherosclerotic lesions: proximal aorta (FIG. 3); for plaque associated calcium deposition: proximal aorta, alizarin red stain (FIG. 3)
Excerpt: Tissue Preparation: Resected specimens were flash frozen in liquid nitrogen, then divided as follows: the heart, ascending aorta and aortic arch were separated from the descending aorta, and bisected sagittally through the aortic outflow tract. The descending aorta was bisected coronally, approximately halfway along its length. In order to visualize calcification in the tissue sections, Slices (5 μm thick) were cut and stained with von Kossa and Trap staining.
Additional mice were enrolled to the study for qualitative analysis of aortas to quantitate the effects of the treatments, because aortas of the experimental animals were destroyed by the technique of quantifying the aortic calcium content. Vascular calcification was largely aortic atherosclerotic plaque associated (FIG. 3), and punctate calcifications in the tunica media were observed. Panel A: Large lipid laden plaque (between arrows) in proximal aorta of a sham-operated high fat fed LDLR−/− mouse. Thick arrows identify focal calcifications in the base of the plaque. Panel B: A large calcified plaque (between arrows) in the proximal aorta of a CKD high fat fed LDLR−/− mouse. Panel C: A large lipid laden plaque (between arrows) in the proximal aorta of a BMP-7 treated CKD high fat fed LDLR−/− mouse. The stain is alizarin red. Magnification is 400× in A-C.

[2] = Blood tests: serum biochemical parameters in the various groups of animals; assay type: in vivo, mouse; conditions: serum; LDLR-/-, fat diet, CKD, 28 weeks post natal; BMP-7 10 μg/kg IP weekly or binder 3% in diet
Description: Animals were sacrificed under anesthesia 28 weeks post natal. At the time of sacrifice, blood was taken by intracardiac stab, and the heart and aorta dissected en bloc. The BMP-7 treated group received intraperitoneal injection of BMP-7 10 μg/kg dry weight once weekly in 100 μl vehicle [mannitol (5% w/v), NaAcetate buffer (20 mM, pH 4.0-4.5), sterile water].
Animals were allocated to one of seven CKD high fat fed groups after the second surgery: Other control Groups included LDLR−/− sham operated mice on chow diet, and LDLR−/− mice with CKD on chow diet. C57B16 WT mice fed chow served as the normal benchmark source. […] Group 1 were LDLR−/− mice on the high fat diet sacrificed at 22 weeks. Group 2 were LDLR−/− mice with CKD fed the high fat diet and treated weekly from 22 to 28 weeks with vehicle IP. […] Group 3 was the first treatment group. These were LDLR−/− mice with CKD on high fat diet that received BMP-7 treatment (10 μg/kg IP weekly). Group 4 were LDLR−/− mice with CKD on high fat diet treated with sevelamer CO3 1%. Group 5 were LDLR−/− mice with CKD on high fat diet treated with sevelamer CO3 3%. […] Once the mice were randomized into groups, they were allowed to develop calcification from weeks 14 through weeks 22 post natal. Therapy was initiated at 23 weeks postnatal and continued until week 28 postnatal at which time the mice were examined.
Blood tests: Serum was analyzed on the day of blood draw for blood urea nitrogen [BUN], cholesterol, calcium and phosphate by standard laboratory methods. Before initiation of therapy, blood was obtained through saphenous vein. At the time of sacrifice, blood was obtained through intracardiac stab.

[3] = system: human vascular smooth muscle cells (hVSMC) isolated from atherosclerotic donors; experiment: Phosphorus stimulated matrix mineralization (matrix Ca content) in hVSMC cultures; assay type: cell-based; conditions: Noggin 10-100 ng/ml added to high phosphorus media (FIG. 6A)
Description: (§1) Cell Culture: Human adult aorta were obtained from seven cadaveric organ donors rejected because of atherosclerosis by Mid-America Transplant Services (St. Louis, Mo.) and enzymatically digested to obtain Human Smooth Muscle Cells (HSMC). Medial tissue was separated from the adventia and intima and digested with collagenase type I (Worthington, Lakewood, N.J.) 2 mg/ml for 1 hr, and washed with Hank's balanced salt solution (HBSS). Further digestion followed with collagenase type II 1 mg/ml (Worthington, Lakewood, N.J.) and elastase 0.25 mg/ml (Worthington, Lakewood, N.J.) for 4 hrs. Cell suspensions were washed twice with HBSS and cultured in T-75 flasks for three weeks in a 95%/5% air/CO2 humidified environment at 37° C. The growth medium used was DMEM containing […] glucose (high glucose), 10% fetal bovine serum (FBS, Atlas, Fort Collins, Colo.), 1 mM sodium pyruvate, 100 units/ml Penicillin and […] Streptomycin (Sigma, St Louis, Mo.). Cell purity was assessed by positive immunostaining for α-smooth muscle actin and calponin and for the absence of von Willebrand factor. In all experimental protocols, cells were seeded at 1×10^5 cells/well in six-well plates. Medium was changed on the first day and every third day thereafter. In all cases, cells used were between passages two and five (Table 3).
Induction of Calcification: At the time of confluence, cells were switched to mineralization medium consisting of DMEM supplemented with 1 or 2 mM Pi. For cells exposed to BMP-7 treatment, fresh mineralization medium containing either vehicle (mannitol, acetic acid, acetate) or BMP-7 in vehicle was added at 0.1, 1.0, 10, or 100 ng/ml. The medium was changed every two or three days. […] Calcium content was quantified and normalized to cellular protein as described. (Jono 2000; Moe S. M. et al., Kidney Int 67:2295-2304, 2005)^11;52
In vitro matrix mineralization. […]

hVSMC = experiment: RT-PCR of osteoblastic differentiation program genes in hVSMC; assay type: cell-based, human; conditions: Noggin 100 ng/ml, high phosphorus media (FIG. 6B)
Description: as §1
RT-PCR: RNA was extracted from cell cultures using RNeasy Mini Kits (Qiagen, Valencia, Calif.). Semi-quantitative RT-PCR was conducted using Roche 1st Strand cDNA Synthesis Kit (Indianapolis, Ind.) and PCR kit from Invitrogen (Grand Island, N.Y.) according to manufacturer's instructions using a two-step method. 1 μg of total RNA was reverse transcribed and random primers were added for 60 min at 42° C., prior to PCR. Forward and Reverse primers (Table 4) were added and the reactions subjected to PCR for 20-35 cycles. The number of cycles necessary to amplify cDNA but remain within the exponential amplification range was determined for each primer set. GAPDH was used as internal standard to assess loading. Genomic contamination was assessed by heat inactivation of the reverse transcriptase prior to RT-PCR. Primers were designed using Vector NTI soft ware (Invitrogen, Grand Island, N.Y.) and optimal conditions for each prime pairs were determined (Table 4). A Perkin-Elmer DNA Thermal Cycler was used to perform the reaction. Products were separated on a 2% agarose E-gel (Invitrogen, Grand Island, N.Y.), and visualized with ethidium bromide. The band intensity was analyzed first by scanning the gel on a Typhoon 9410 gel imager (Amersham Biosciences), quantified by using TotalLab software v2003.03 (Nonlinear Dynamics, Durham, N.C.) and normalized for loading by comparison to GAPGH. Negative controls were performed by inactivating the reverse transcriptase by boiling for 5 min prior to RT-PCR to insure that genomic DNA was not amplified.
Stimulation of osteoblastic differentiation through osterix induction. […] Osterix (E) was only weakly expressed in basal culture conditions. Phosphorus stimulated transcription of osterix (E). […] The data in A-E were normalized to the expression level in basal culture conditions and expressed as fold induction, mean±SEM, n=3. In: Principles of Bone Biology, edited by Bilezikian J P et al., New York, Academic Press, 1996, pp 51-67; Hoffmann H M et al., Proc. Nat. […]

Row | Molecule | size of the atherosclerotic lesions [1] | plaque associated calcium deposition [1] | Phosphorus [2] | matrix mineralization stimulated by phosphorus [3] | phosphorus induced osterix expression (hVSMC)
1 | O=C([O-])[O-].[Ca+2] [CaCO3] | did not decrease the size of the atherosclerotic lesions | diminished plaque associated calcium deposition | – | – | –
2 | O=C([O-])[O-].O=C([O-])[O-].O=C([O-])[O-].[La+3].[La+3] [Lanthanum, LaCO3] | did not decrease the size of the atherosclerotic lesions | diminished plaque associated calcium deposition | 9.7 ± .4 mg/dL | – | –
3 | B1 | – | – | – | inhibited matrix mineralization stimulated by phosphorus | blocked phosphorus induced osterix expression
